Counter-ions that a name gives are not always drawn. Like-named read-outs stand apart in the source and are kept apart here.
Legend:
[1] = molecular target: T1, SARS-CoV-2 PLpro (nsp3 1564–1878) (Severe acute respiratory syndrome coronavirus 2, UniProt P0DTD1); experiment: biochemical; design: FRET-quenched peptide (Pro3) cleavage by PLpro, 10 min pre-incubation, slope over 20 min, normalised to no-compound control; details: low concentration screen, read-out: % of control remaining
[2] = molecular target: T1, SARS-CoV-2 PLpro (nsp3 1564–1878); experiment: biochemical; design: FRET-quenched peptide (Pro3) cleavage by PLpro, 10 min pre-incubation, slope over 20 min, normalised to no-compound control; details: high concentration screen, read-out: % of control remaining

CO[C@H](C(=O)[C@@H](O)[C@@H](C)O)[C@@H]1Cc2cc3cc(O[C@H]4C[C@@H](O[C@@H]5C[C@@H](O)[C@H](O)[C@@H](C)O5)[C@H](O)[C@@H](C)O4)c(C)c(O)c3c(O)c2C(=O)[C@H]1O[C@H]1C[C@@H](O[C@@H]2C[C@@H](O)[C@@H](O[C@@H]3C[C@](C)(O)[C@H](O)[C@@H](C)O3)[C@@H](C)O2)[C@H](O)[C@@H](C)O1 [Plicamycin]
remaining activity at 1.25 µM ([1]; Well no.=1666): 107%
remaining activity at 3.75 µM ([2]; Well no.=1666): 106%

CN1[C@@H]2CC(O)C[C@H]1[C@@H]1O[C@@H]12 (stereo partly drawn) [Scopine HCl]
remaining activity at 1.25 µM ([1]; Well no.=4914): 87.1%
remaining activity at 3.75 µM ([2]; Well no.=4914): 84%

CC(C)OC(=O)CCC/C=C\C[C@@H]1[C@@H](CC[C@@H](O)CCc2ccccc2)[C@H](O)C[C@@H]1O [Latanoprost]
remaining activity at 1.25 µM ([1]; Well no.=1769): 97.5%
remaining activity at 1.25 µM ([1]; Well no.=6843): 100%
remaining activity at 3.75 µM ([2]; Well no.=1769): 95.3%
remaining activity at 3.75 µM ([2]; Well no.=6843): 98.9%

Cc1c(C(=O)Nc2cccc(C(F)(F)F)c2)cc(-c2ccccc2)n1CCCN1CCOCC1 [HC-067047]
remaining activity at 1.25 µM ([1]; Well no.=5409): 102%
remaining activity at 3.75 µM ([2]; Well no.=5409): 103%

CCn1cc(-c2ccc3c(c2)CCN3C(=O)Cc2cccc(OC(F)(F)F)c2)c2c(N)ncnc21 [RIPK1-IN-7]
remaining activity at 1.25 µM ([1]; Well no.=6824): 94.8%
remaining activity at 3.75 µM ([2]; Well no.=6824): 94.4%

O=C1Nc2ccccc2C2(CCN(CCc3ccc(C(F)(F)F)cc3)CC2)O1 [RS102895 (hydrochloride)]
remaining activity at 1.25 µM ([1]; Well no.=8003): 98.5%
remaining activity at 1.25 µM ([1]; Well no.=8275): 106%
remaining activity at 3.75 µM ([2]; Well no.=8003): 93.3%
remaining activity at 3.75 µM ([2]; Well no.=8275): 104%

COc1ccc(C2(O)OC(=O)C(c3ccc4c(c3)OCO4)=C2Cc2cc(OC)c(OC)c(OC)c2)cc1 (stereo not drawn) [PD-156707]
remaining activity at 1.25 µM ([1]; Well no.=5693): 101%
remaining activity at 3.75 µM ([2]; Well no.=5693): 104%

CC(C)NCC(O)c1ccc(O)c(O)c1 (stereo not drawn) [Isoprenaline (hydrochloride)]
remaining activity at 1.25 µM ([1]; Well no.=6761): 99.4%
remaining activity at 3.75 µM ([2]; Well no.=6761): 101%

CC(C)[C@H]1C(=O)O[C@@H]2CCN3CC=C(COC(=O)[C@](C)(O)[C@]1(C)O)[C@H]23 [Trichodesmine]
remaining activity at 1.25 µM ([1]; Well no.=3205): 105%
remaining activity at 3.75 µM ([2]; Well no.=3205): 106%

O=C1OC(CN2CCOCC2)CN1/N=C/c1ccc([N+](=O)[O-])o1 (stereo not drawn) [5-(4-morpholinylmethyl)-3-{[(E)-(5-nitro-2-furyl)methylidene]amino}-1,3-oxazolidin-2-one]
remaining activity at 1.25 µM ([1]; Well no.=6079): 99.9%
remaining activity at 3.75 µM ([2]; Well no.=6079): 98.7%

CN(C)CCN1C(=O)c2cccc3cc(NC(N)=O)cc(c23)C1=O [UNBS5162]
remaining activity at 1.25 µM ([1]; Well no.=6953): 98.3%
remaining activity at 1.25 µM ([1]; Well no.=8453): 109%
remaining activity at 3.75 µM ([2]; Well no.=6953): 98%
remaining activity at 3.75 µM ([2]; Well no.=8453): 112%

COc1ccccc1N1CCN(CCCCN2C(=O)c3ccccc3C2=O)CC1 [NAN-190 (hydrobromide)]
remaining activity at 1.25 µM ([1]; Well no.=7191): 98.5%
remaining activity at 3.75 µM ([2]; Well no.=7191): 94.2%

C[C@@H]1C(=O)O[C@H]2[C@H](O)[C@@]34[C@H]5C[C@@H](C(C)(C)C)[C@]36[C@@H](OC(=O)[C@@H]6O)O[C@@]4(C(=O)O5)[C@@]12O [Ginkgolide B]
remaining activity at 1.25 µM ([1]; Well no.=3321): 97.9%
remaining activity at 1.25 µM ([1]; Well no.=6484): 95.6%
remaining activity at 3.75 µM ([2]; Well no.=3321): 101%
remaining activity at 3.75 µM ([2]; Well no.=6484): 92.7%

COc1ccc(C2=N[C@@H](c3ccc(Cl)cc3)[C@@H](c3ccc(Cl)cc3)N2C(=O)N2CCNC(=O)C2)c(OC(C)C)c1 [Nutlin (3a)]
remaining activity at 1.25 µM ([1]; Well no.=6440): 92.9%
remaining activity at 1.25 µM ([1]; Well no.=7746): 92%
remaining activity at 3.75 µM ([2]; Well no.=6440): 93.4%
remaining activity at 3.75 µM ([2]; Well no.=7746): 93.2%

C[C@]12CC[C@@H](O)C[C@@H]1CC[C@@H]1[C@@H]2CC[C@]2(C)[C@@H](C(=O)CO)CC[C@@H]12 [3-alpha,21-Dihydroxy-5-alpha-pregnan-20-one]
remaining activity at 1.25 µM ([1]; Well no.=856): 99.8%
remaining activity at 3.75 µM ([2]; Well no.=856): 104%

Nc1ncnc2c1nc(N)n2[C@@H]1O[C@H](CO)[C@@H](O)[C@H]1O [(2R,3R,4S,5R)-2-(6,8-diamino-9H-purin-9-yl)-5-(hydroxymethyl)tetrahydrofuran-3,4-diol]
remaining activity at 1.25 µM ([1]; Well no.=5532): 106%
remaining activity at 3.75 µM ([2]; Well no.=5532): 105%

CN(C)CCC(c1ccc(Br)cc1)c1ccccn1 (racemic)
remaining activity at 1.25 µM ([1]; Well no.=219): 97.7%
remaining activity at 3.75 µM ([2]; Well no.=219): 97.9%

COC(=O)[C@H]1[C@@H](O)[C@@]2(O)c3c(OC)cc(O[C@@H]4O[C@@H]([C@H](O)CO)CO[C@H]4OC)cc3O[C@@]2(c2ccc(OC)cc2)[C@@H]1c1ccccc1 [Silvestrol]
remaining activity at 1.25 µM ([1]; Well no.=7120): 103%
remaining activity at 3.75 µM ([2]; Well no.=7120): 101%

CCCCCC(=O)c1c(O)c(Cl)c(OC)c(Cl)c1O [1-(3,5-dichloro-2,6-dihydroxy-4-methoxyphenyl)-1-hexanone]
remaining activity at 1.25 µM ([1]; Well no.=5626): 99.3%
remaining activity at 3.75 µM ([2]; Well no.=5626): 102%

O=C(NCc1ccccc1)c1csc(Nc2ccncn2)n1 [Thiazovivin]
remaining activity at 1.25 µM ([1]; Well no.=4867): 100%
remaining activity at 3.75 µM ([2]; Well no.=4867): 102%

Nc1nc(N)c2nc(CNc3ccc(C(=O)N[C@@H](CCC(=O)O)C(=O)O)cc3)cnc2n1 [Aminopterin]
remaining activity at 1.25 µM ([1]; Well no.=153): 101%
remaining activity at 3.75 µM ([2]; Well no.=153): 104%

CNCC(O)c1ccc(O)c(O)c1 [L-Epinephrine (Bitartrate)]
remaining activity at 1.25 µM ([1]; Well no.=6952): 98%
remaining activity at 3.75 µM ([2]; Well no.=6952): 94.1%

C[C@H](O)C(=O)C1=Nc2c(nc(N)[nH]c2=O)NC1 [Sepiapterin]
remaining activity at 1.25 µM ([1]; Well no.=1183): 99.7%
remaining activity at 3.75 µM ([2]; Well no.=1183): 96.3%

CN(C)CCCN1c2ccccc2CCc2ccc(Cl)cc21 [Clomipramine hydrochloride]
remaining activity at 1.25 µM ([1]; Well no.=328): 101%
remaining activity at 3.75 µM ([2]; Well no.=328): 98.6%

Cc1ccc(S(=O)(=O)NC(=O)NN2CCCCCC2)cc1 [Tolazamide]
remaining activity at 1.25 µM ([1]; Well no.=1523): 93.9%
remaining activity at 1.25 µM ([1]; Well no.=1810): 100%
remaining activity at 3.75 µM ([2]; Well no.=1523): 94.7%
remaining activity at 3.75 µM ([2]; Well no.=1810): 93.8%

Cc1cc(O[C@@H](CCC(F)(F)F)c2ccc(C(=O)NCCC(=O)O)cc2)cc(C)c1-c1ccc(C(C)(C)C)cc1 [Adomeglivant]
remaining activity at 1.25 µM ([1]; Well no.=7043): 99.3%
remaining activity at 3.75 µM ([2]; Well no.=7043): 98.4%

CC(=O)NCC(=O)O [N-Acetylglycine]
remaining activity at 1.25 µM ([1]; Well no.=6779): 96.3%
remaining activity at 3.75 µM ([2]; Well no.=6779): 96%

Clc1ccc2nsnc2c1NC1=NCCN1 [Tizanidine HCl]
remaining activity at 1.25 µM ([1]; Well no.=4851): 101%
remaining activity at 3.75 µM ([2]; Well no.=4851): 99.7%

CC/C=C\C/C=C\C/C=C\C/C=C\C/C=C\CCCCCC(=O)O [Docosapentaenoic acid]
remaining activity at 1.25 µM ([1]; Well no.=4347): 105%
remaining activity at 1.25 µM ([1]; Well no.=4492): 93.7%
remaining activity at 3.75 µM ([2]; Well no.=4347): 105%
remaining activity at 3.75 µM ([2]; Well no.=4492): 91.7%

Reference: PMC8286840, “Identifying SARS-CoV-2 antiviral compounds by screening for small molecule inhibitors of Nsp3 papain-like protease” (Biochemical Journal, 2021)
